Measurements reported in PubChem BioAssay AID180 (DTP/NCI, 2004).
“And” between values parts separate entries of the source, which are not always exact repeats. Equal entries are not always repeated.

Test system: BDF1 mice, Adenocarcinoma 755 s.c., tumor weight T/C
Experiment: NCI In Vivo Anticancer Drug Screen. Data for tumor model Adenocarcinoma 755 (subcutaneous) in B6D2F1 (BDF1) mice
Settings: endpoint: mean tumor weight, higher = larger tumour
Summary of the method: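 Transplantable tumor implanted; mice dosed with compound or vehicle; survival or tumor size recorded; ratio of treated to vehicle control reported.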

## Nc1c(Br)cc2c(c1Br)Cc1cc(Br)ccc1-2
dose: 3.75 mg/kg/injection, schedule: Q#A X022 (ip), vehicle: saline
  T/C: 77 % of control
dose: 7.5 mg/kg/injection, schedule: Q#A X022 (ip), vehicle: saline
  T/C: 50 % of control
dose: 15.0 mg/kg/injection, schedule: Q01DX011 (im), vehicle: saline
  T/C: 46 % of control
dose: 15.0 mg/kg/injection, schedule: Q01DX011 (sc), vehicle: saline
  T/C: 58 % of control
dose: 15.0 mg/kg/injection, schedule: Q#A X022 (ip), vehicle: saline
  T/C: 40 % of control
dose: 15.5 mg/kg/injection, schedule: Q01DX011 (ip), vehicle: saline
  T/C: 74 % of control
dose: 21.8 mg/kg/injection, schedule: Q01DX011 (ip), vehicle: saline
  T/C: 59 % of control and 69 % of control
dose: 30.0 mg/kg/injection, schedule: Q01DX011 (im), vehicle: saline
  T/C: 48 % of control
dose: 30.0 mg/kg/injection, schedule: Q01DX011 (sc), vehicle: saline
  T/C: 52 % of control
dose: 30.0 mg/kg/injection, schedule: Q#A X022 (ip), vehicle: saline
  T/C: 40 % of control
dose: 31.2 mg/kg/injection, schedule: Q01DX011 (ip), vehicle: saline
  T/C: 75 % of control
dose: 43.7 mg/kg/injection, schedule: Q01DX011 (ip), vehicle: saline
  T/C: 18 % of control and 36 % of control
dose: 45.0 mg/kg/injection, schedule: Q03DX004 (ip), vehicle: saline
  T/C: 67 % of control
dose: 60.0 mg/kg/injection, schedule: Q01DX011 (im), vehicle: saline
  T/C: 40 % of control
dose: 60.0 mg/kg/injection, schedule: Q01DX011 (ip), vehicle: saline
  T/C: 24 % of control
dose: 60.0 mg/kg/injection, schedule: Q01DX011 (sc), vehicle: saline
  T/C: 41 % of control
dose: 60.0 mg/kg/injection, schedule: Q#A X022 (ip), vehicle: saline
  T/C: 28 % of control
dose: 62.5 mg/kg/injection, schedule: Q01DX011 (ip), vehicle: saline
  T/C: 63 % of control
dose: 87.5 mg/kg/injection, schedule: Q01DX011 (ip), vehicle: saline
  T/C: 33 % of control and 35 % of control
dose: 90.0 mg/kg/injection, schedule: Q03DX004 (ip), vehicle: saline
  T/C: 66 % of control
dose: 100.0 mg/kg/injection, schedule: Q01DX001 (ip), vehicle: saline
  T/C: 80 % of control and 87 % of control
dose: 100.0 mg/kg/injection, schedule: Q07DX002 (ip), vehicle: saline
  T/C: 78 % of control
dose: 120.0 mg/kg/injection, schedule: Q01DX001 (ip), vehicle: saline
  T/C: 56 % of control
dose: 120.0 mg/kg/injection, schedule: Q01DX011 (im), vehicle: saline
  T/C: 45 % of control
dose: 120.0 mg/kg/injection, schedule: Q01DX011 (ip), vehicle: saline
  T/C: 17 % of control
dose: 120.0 mg/kg/injection, schedule: Q01DX011 (oral), vehicle: saline
  T/C: 26 % of control
dose: 120.0 mg/kg/injection, schedule: Q01DX011 (sc), vehicle: saline
  T/C: 46 % of control
dose: 120.0 mg/kg/injection, schedule: Q#A X022 (ip), vehicle: saline
  T/C: 34 % of control
dose: 125.0 mg/kg/injection, schedule: Q01DX011 (ip), vehicle: saline
  T/C: 36 % of control
dose: 125.0 mg/kg/injection, schedule: Q01DX011 (oral), vehicle: saline
  T/C: 74 % of control
dose: 175.0 mg/kg/injection, schedule: Q01DX011 (ip), vehicle: other
  T/C: 33 % of control
dose: 175.0 mg/kg/injection, schedule: Q01DX011 (ip), vehicle: saline
  T/C: 27 % of control and 33 % of control
dose: 180.0 mg/kg/injection, schedule: Q03DX004 (ip), vehicle: saline
  T/C: 58 % of control
dose: 200.0 mg/kg/injection, schedule: Q01DX001 (ip), vehicle: saline
  T/C: 74 % of control and 75 % of control
dose: 200.0 mg/kg/injection, schedule: Q07DX002 (ip), vehicle: saline
  T/C: 71 % of control
dose: 240.0 mg/kg/injection, schedule: Q01DX001 (ip), vehicle: saline
  T/C: 44 % of control
dose: 240.0 mg/kg/injection, schedule: Q01DX011 (ip), vehicle: saline
  T/C: 16 % of control
dose: 240.0 mg/kg/injection, schedule: Q01DX011 (oral), vehicle: saline
  T/C: 23 % of control
dose: 250.0 mg/kg/injection, schedule: Q01DX011 (ip), vehicle: saline
  T/C: 52 % of control
dose: 250.0 mg/kg/injection, schedule: Q01DX011 (oral), vehicle: saline
  T/C: 64 % of control
dose: 350.0 mg/kg/injection, schedule: Q01DX011 (ip), vehicle: other
  T/C: 16 % of control
dose: 360.0 mg/kg/injection, schedule: Q03DX004 (ip), vehicle: saline
  T/C: 54 % of control
dose: 400.0 mg/kg/injection, schedule: Q01DX001 (ip), vehicle: saline
  T/C: 54 % of control and 65 % of control
dose: 400.0 mg/kg/injection, schedule: Q07DX002 (ip), vehicle: saline
  T/C: 51 % of control
dose: 480.0 mg/kg/injection, schedule: Q01DX001 (ip), vehicle: saline
  T/C: 26 % of control
dose: 480.0 mg/kg/injection, schedule: Q01DX011 (im), vehicle: saline
  T/C: 33 % of control
dose: 480.0 mg/kg/injection, schedule: Q01DX011 (ip), vehicle: saline
  T/C: 16 % of control
dose: 480.0 mg/kg/injection, schedule: Q01DX011 (oral), vehicle: saline
  T/C: 24 % of control
dose: 480.0 mg/kg/injection, schedule: Q01DX011 (sc), vehicle: saline
  T/C: 30 % of control
dose: 500.0 mg/kg/injection, schedule: Q01DX011 (ip), vehicle: saline
  T/C: 58 % of control
dose: 500.0 mg/kg/injection, schedule: Q01DX011 (oral), vehicle: saline
  T/C: 57 % of control
dose: 700.0 mg/kg/injection, schedule: Q01DX011 (ip), vehicle: other
  T/C: 34 % of control
dose: 720.0 mg/kg/injection, schedule: Q03DX004 (ip), vehicle: saline
  T/C: 24 % of control
dose: 800.0 mg/kg/injection, schedule: Q01DX001 (ip), vehicle: saline
  T/C: 60 % of control and 80 % of control
dose: 800.0 mg/kg/injection, schedule: Q07DX002 (ip), vehicle: saline
  T/C: 51 % of control
dose: 960.0 mg/kg/injection, schedule: Q01DX001 (ip), vehicle: saline
  T/C: 31 % of control
dose: 960.0 mg/kg/injection, schedule: Q01DX011 (im), vehicle: saline
  T/C: 29 % of control
dose: 960.0 mg/kg/injection, schedule: Q01DX011 (oral), vehicle: saline
  T/C: 25 % of control
dose: 960.0 mg/kg/injection, schedule: Q01DX011 (sc), vehicle: saline
  T/C: 25 % of control
dose: 1000.0 mg/kg/injection, schedule: Q01DX011 (ip), vehicle: saline
  T/C: 47 % of control
dose: 1000.0 mg/kg/injection, schedule: Q01DX011 (oral), vehicle: saline
  T/C: 43 % of control
dose: 1440.0 mg/kg/injection, schedule: Q03DX004 (ip), vehicle: saline
  T/C: 29 % of control
dose: 2000.0 mg/kg/injection, schedule: Q01DX011 (ip), vehicle: saline
  T/C: 40 % of control
dose: 2000.0 mg/kg/injection, schedule: Q01DX011 (oral), vehicle: saline
  T/C: 36 % of control
dose: 3000.0 mg/kg/injection, schedule: Q01DX011 (oral), vehicle: saline
  T/C: 56 % of control

## O=C([O][Hg][CH2]C1CC(O)CC([CH2][Hg][O]C(=O)c2ccccc2)O1)c1ccccc1 (stereo not drawn)
dose: 25.0 mg/kg/injection, schedule: Q01DX011 (ip), vehicle: carboxymethylcellulose (CMC)
  T/C: 83 % of control
dose: 50.0 mg/kg/injection, schedule: Q01DX011 (ip), vehicle: carboxymethylcellulose (CMC)
  T/C: 33 % of control

## CC(=O)[C@H]1CC[C@H]2[C@@H]3CCC4=CC(=O)[C@H](C)C[C@]4(C)[C@@]3(F)C(=O)C[C@]12C
dose: 1.5 mg/kg/injection, schedule: Q01DX011 (sc), vehicle: steriod suspending solution
  T/C: 120 % of control
dose: 3.12 mg/kg/injection, schedule: Q01DX011 (sc), vehicle: steriod suspending solution
  T/C: 77 % of control
dose: 6.0 mg/kg/injection, schedule: Q01DX011 (sc), vehicle: steriod suspending solution
  T/C: 69 % of control
dose: 6.25 mg/kg/injection, schedule: Q01DX011 (sc), vehicle: steriod suspending solution
  T/C: 79 % of control
dose: 12.0 mg/kg/injection, schedule: Q01DX011 (sc), vehicle: steriod suspending solution
  T/C: 36 % of control and 56 % of control
dose: 12.5 mg/kg/injection, schedule: Q01DX011 (sc), vehicle: steriod suspending solution
  T/C: 79 % of control
dose: 25.0 mg/kg/injection, schedule: Q01DX011 (sc), vehicle: steriod suspending solution
  T/C: 36 % of control and 47 % of control and 58 % of control
dose: 50.0 mg/kg/injection, schedule: Q01DX011 (sc), vehicle: steriod suspending solution
  T/C: 33 % of control and 39 % of control
dose: 51.0 mg/kg/injection, schedule: Q01DX011 (sc), vehicle: steriod suspending solution
  T/C: 21 % of control
dose: 75.0 mg/kg/injection, schedule: Q01DX011 (sc), vehicle: steriod suspending solution
  T/C: 21 % of control
dose: 100.0 mg/kg/injection, schedule: Q01DX011 (sc), vehicle: steriod suspending solution
  T/C: 9 % of control and 16 % of control and 22 % of control
dose: 200.0 mg/kg/injection, schedule: Q01DX011 (sc), vehicle: steriod suspending solution
  T/C: 6 % of control and 14 % of control

## CC1(C)N=C(N)N=C(N)N1c1cccc(Cl)c1
dose: 1.15 mg/kg/injection, schedule: Q01DX011 (ip), vehicle: carboxymethylcellulose (CMC)
  T/C: 89 % of control
dose: 2.3 mg/kg/injection, schedule: Q01DX011 (ip), vehicle: carboxymethylcellulose (CMC)
  T/C: 72 % of control
dose: 4.6 mg/kg/injection, schedule: Q01DX011 (ip), vehicle: carboxymethylcellulose (CMC)
  T/C: 121 % of control
dose: 9.2 mg/kg/injection, schedule: Q01DX011 (ip), vehicle: carboxymethylcellulose (CMC)
  T/C: 88 % of control
